Assay results published in patent US9458113B2 (Boehringer Ingelheim International GmbH, priority 2014, dated 2016).

What was measured:
[1] = Drug transport across human Caco-2 cells; assay type: in vitro ADME; details: apparent permeability coefficient, Caco-2 monolayers, pH 7.2, 37° C.; for Papp A→B at 10 µM: apical-to-basal (absorptive), read-out: PEAB; for Papp B→A at 10 µM: basal-to-apical (secretory), read-out: PEBA
Text: Assay for Determination of Drug Transport Across Human Caco-2 Cells
The assay provides information on the potential of a compound to pass the cell membrane, on the extent of oral absorption as well as on whether the compound is actively transported by uptake and/or efflux transporters. For the measurement of permeability across polarized, confluent human cancer colon carcinoma cells 2 (Caco-2) cell monolayers grown on permeable filter supports are used as the in vitro absorption model.
Apparent permeability coefficients (PE) of the compounds across the Caco-2 monolayers are measured (pH 7.2, 37° C.) in apical-to-basal (AB) (absorptive) and basal-to-apical (BA) (secretory) transport direction. AB permeability (PEAB) represents drug absorption from the intestine into the blood and BA permeability (PEBA) drug secretion from the blood back into the intestine via both passive permeability as well as active transport mechanisms mediated by efflux and uptake transporters that are expressed on the Caco-2 cells. The compounds are assigned to permeability/absorption classes by comparison of the AB permeabilities with the AB permeabilities of reference compounds with known in vitro permeability and oral absorption in the human. Identical or similar permeabilities in both transport directions indicate passive permeation, vectorial permeability points to additional active transport mechanisms. […] Active transport is concentration-dependently saturable.
Caco-2 cells (1-2*10^5 cells/cm^2 area) are seeded on filter inserts (Costar transwell polycarbonate or PET filters, 0.4 μm pore size) and cultured (DMEM) for 10 to 25 days. Compounds are dissolved in appropriate solvent (like DMSO, […] stock solutions). Stock solutions are diluted with HTP-4 buffer (128.13 mM NaCl, 5.36 mM KCl, 1 mM MgSO4, 1.8 mM CaCl2, 4.17 mM NaHCO3, 1.19 mM Na2HPO4x7H2O, 0.41 mM NaH2PO4xH2O, 15 mM HEPES, 20 mM glucose, pH 7.2) to prepare the transport solutions (typically 10 μM compound, final DMSO<=0.5%). The transport solution (TL) is applied to the apical or basolateral donor side for measuring A-B or B-A permeability (3 filter replicates), respectively. The receiver side contains HTP-4 buffer supplemented with 2% BSA. Samples are collected at the start and end of experiment from the donor and at various time intervals for up to 2 hours also from the receiver side for concentration measurement by LC-MS/MS or scintillation counting. Sampled receiver volumes are replaced with fresh receiver solution.
The apparent permeability coefficients (PEAB and PEBA) of selected compounds in the Caco-2 drug transport assay described above are listed in Table 16.

[2] = Aqueous solubility (Shaked Flask Method); assay type: physicochemical; details: aqueous buffer, thermodynamic from solid, pH 6.8
Description: Assay for Determination of Aqueous Solubility (“Shaked Flask Method”)
Saturated solutions are prepared in well plates by adding an appropriate volume of selected aqueous media (typically in the range of 0.25-1.5 ml) into each well which contains a known quantity of solid drug substance (typically in the range 0.5-5.0 mg). The wells are shaken or stirred for a predefined time period (typically in a range of 2-24 h) and then filtered using appropriate filter membranes (typically PTFE-filters with 0.45 μm pore size). Filter absorption is avoided by discarding the first few drops of filtrate. The amount of dissolved drug substance is determined by UV spectroscopy or by HPLC with UV-detection. In addition, the pH of the aqueous saturated solution is measured using a glass-electrode pH meter.

cytochrome P450 2C19 = cytochrome P450 2C19 (Homo sapiens (Human), UniProt P33261); assay: Cytochrome P450 2C19 inhibition; assay type: in vitro ADME; details: human liver microsomes, (S)-Mephenytoin hydroxylation; read-out: IC50 (CYP 2C19)
Sequence of cytochrome P450 2C19 (P33261 whole entry): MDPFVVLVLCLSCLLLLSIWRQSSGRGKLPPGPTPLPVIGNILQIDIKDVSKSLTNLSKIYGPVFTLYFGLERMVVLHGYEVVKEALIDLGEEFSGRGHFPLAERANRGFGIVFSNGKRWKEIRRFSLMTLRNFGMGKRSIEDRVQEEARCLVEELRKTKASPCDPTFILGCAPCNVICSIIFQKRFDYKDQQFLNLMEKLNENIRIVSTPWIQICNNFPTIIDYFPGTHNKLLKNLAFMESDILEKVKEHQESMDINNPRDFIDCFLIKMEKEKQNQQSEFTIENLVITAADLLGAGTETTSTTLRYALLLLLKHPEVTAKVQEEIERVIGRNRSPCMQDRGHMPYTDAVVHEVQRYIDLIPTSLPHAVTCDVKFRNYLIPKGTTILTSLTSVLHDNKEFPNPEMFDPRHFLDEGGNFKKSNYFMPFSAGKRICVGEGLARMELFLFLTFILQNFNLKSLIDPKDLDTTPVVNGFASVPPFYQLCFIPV
Text: Assay for Determination of Cytochrome P450 2C19 Inhibition
(§1) (I=inhibitor concentration, S=slope factor, B=background activity)

cytochrome P450 2C8 = cytochrome P450 2C8 (Homo sapiens (Human), UniProt P10632); assay: Cytochrome P450 2C8 inhibition; assay type: in vitro ADME; details: human liver microsomes, Amodiaquine deethylation; read-out: IC50 (CYP 2C8)
Sequence of cytochrome P450 2C8 (P10632 whole entry): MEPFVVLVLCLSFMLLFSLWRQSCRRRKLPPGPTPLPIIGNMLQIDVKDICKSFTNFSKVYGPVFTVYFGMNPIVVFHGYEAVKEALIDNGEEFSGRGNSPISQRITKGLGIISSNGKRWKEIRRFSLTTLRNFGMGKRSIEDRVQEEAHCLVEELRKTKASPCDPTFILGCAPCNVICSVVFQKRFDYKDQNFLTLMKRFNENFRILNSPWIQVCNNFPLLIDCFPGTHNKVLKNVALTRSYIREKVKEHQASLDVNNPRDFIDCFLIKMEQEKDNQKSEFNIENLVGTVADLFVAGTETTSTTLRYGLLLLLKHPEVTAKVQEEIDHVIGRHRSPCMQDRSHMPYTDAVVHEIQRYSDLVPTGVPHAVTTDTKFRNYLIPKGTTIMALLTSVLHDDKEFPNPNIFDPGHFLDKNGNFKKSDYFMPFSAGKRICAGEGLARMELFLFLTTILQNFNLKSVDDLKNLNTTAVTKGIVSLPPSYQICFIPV
Text: Assay for Determination of Cytochrome P450 2C8 Inhibition
as §1

Papp A→B at 10 µM [1] [×10⁻⁶ cm/s]	Papp B→A at 10 µM [1] [×10⁻⁶ cm/s]	solubility [2] [µg/mL]	IC50 (cytochrome P450 2C19) [µM]	IC50 (cytochrome P450 2C8) [µM]	SMILES
21	84	> 10	> 50	> 50	CN1C(=O)N(c2cccc(C(F)(F)F)c2)C2=C(C(=O)CC2)[C@H]1c1ccc(C#N)cc1CNC(C)(C)C [Example 24, 3-(tert-Butylamino-methyl)-4-[(R)-3-methyl-2,5-dioxo-1-(3-trifluoromethyl-phenyl)-2,3,4,5,6,7-hexahydro-1H-cyclopentapyrimidin-4-yl]-benzonitrile]
4.8	51	> 10	> 50	> 50	CN1C(=O)N(c2cccc(C(F)(F)F)c2)C2=C(C(=O)CC2)[C@H]1c1ccc(C#N)cc1C(N)=O [Example 2, 5-Cyano-2-[(R)-3-methyl-2,5-dioxo-1-(3-trifluoromethyl-phenyl)-2,3,4,5,6,7-hexahydro-1H-cyclopentapyrimidin-4-yl]-benzamide]
6.6	87	> 10	> 50	> 50	CN1C(=O)N(c2cccc(C(F)(F)F)c2)C2=C(C(=O)CC2)[C@H]1c1ccc(C#N)cc1-c1ccc(=O)n(C)c1 [Example 23, 4-[(R)-3-Methyl-2,5-dioxo-1-(3-trifluoromethyl-phenyl)-2,3,4,5,6,7-hexahydro-1H-cyclopentapyrimidin-4-yl]-3-(1-methyl-6-oxo-1,6-dihydro-pyridin-3-yl)-benzonitrile]
